Assay results reported in patent US11786503B2, “Pharmaceutical compositions and methods for countering chemotherapy induced cardiotoxicity” (Auransa Inc., priority 2016, dated 2023).
Like-named read-outs stand apart in the source and are kept apart here.

Assays:
[1] = molecular target: T1, TOPOIIα (Homo sapiens, UniProt P11388); assay: kDNA decatenation assay, TOPOIIα; format: biochemical; conditions: for TOPOIIα inhibition, in words: decatenation assay;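 as to all read-outs here: kDNA incubated with one unit of TOPOIIα at 37 °C for 30 min, decatenated product resolved on 1% agarose gel, inhibition from relative band intensity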
T1 construct: purchased Inspiralis
T1 sequence (P11388 whole entry): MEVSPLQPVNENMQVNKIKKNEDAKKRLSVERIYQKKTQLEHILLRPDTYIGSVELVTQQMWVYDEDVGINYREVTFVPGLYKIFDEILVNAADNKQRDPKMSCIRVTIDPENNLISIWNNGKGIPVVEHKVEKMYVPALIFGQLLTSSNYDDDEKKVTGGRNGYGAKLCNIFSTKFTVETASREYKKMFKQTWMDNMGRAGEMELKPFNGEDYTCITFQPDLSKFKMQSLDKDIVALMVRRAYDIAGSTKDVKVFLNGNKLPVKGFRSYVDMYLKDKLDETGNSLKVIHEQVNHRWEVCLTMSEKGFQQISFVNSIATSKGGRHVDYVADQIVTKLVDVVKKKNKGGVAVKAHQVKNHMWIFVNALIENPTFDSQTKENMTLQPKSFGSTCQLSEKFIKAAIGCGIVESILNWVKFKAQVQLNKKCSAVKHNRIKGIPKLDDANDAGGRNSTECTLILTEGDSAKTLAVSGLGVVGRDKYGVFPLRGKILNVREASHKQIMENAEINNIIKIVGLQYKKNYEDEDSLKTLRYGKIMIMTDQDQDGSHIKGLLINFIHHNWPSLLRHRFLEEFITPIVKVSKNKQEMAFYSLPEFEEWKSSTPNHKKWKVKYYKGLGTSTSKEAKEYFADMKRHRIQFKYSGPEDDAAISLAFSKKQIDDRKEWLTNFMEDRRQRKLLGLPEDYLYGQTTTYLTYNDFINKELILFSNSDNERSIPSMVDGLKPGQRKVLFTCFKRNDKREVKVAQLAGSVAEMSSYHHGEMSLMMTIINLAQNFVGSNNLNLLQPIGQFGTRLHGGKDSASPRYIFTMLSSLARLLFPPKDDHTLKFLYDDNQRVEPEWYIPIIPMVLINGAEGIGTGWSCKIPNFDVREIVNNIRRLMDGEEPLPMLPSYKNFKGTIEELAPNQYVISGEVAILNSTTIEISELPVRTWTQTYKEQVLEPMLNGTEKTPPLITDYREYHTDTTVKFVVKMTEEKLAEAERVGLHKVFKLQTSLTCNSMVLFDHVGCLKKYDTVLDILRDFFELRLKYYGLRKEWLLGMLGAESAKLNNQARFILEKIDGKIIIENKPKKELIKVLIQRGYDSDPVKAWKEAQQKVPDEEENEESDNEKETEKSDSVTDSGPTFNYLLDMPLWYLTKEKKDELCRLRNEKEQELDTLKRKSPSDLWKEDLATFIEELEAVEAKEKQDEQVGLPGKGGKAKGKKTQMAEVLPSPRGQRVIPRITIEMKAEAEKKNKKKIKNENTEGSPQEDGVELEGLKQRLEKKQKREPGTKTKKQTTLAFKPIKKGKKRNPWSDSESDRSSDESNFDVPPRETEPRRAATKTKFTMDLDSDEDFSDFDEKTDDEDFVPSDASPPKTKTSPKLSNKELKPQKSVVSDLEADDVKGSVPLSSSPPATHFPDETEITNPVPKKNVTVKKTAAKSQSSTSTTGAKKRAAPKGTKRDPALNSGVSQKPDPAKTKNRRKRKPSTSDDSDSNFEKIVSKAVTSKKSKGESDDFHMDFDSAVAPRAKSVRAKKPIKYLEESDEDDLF

[2] = molecular target: T2, TOPOIIβ (Homo sapiens, UniProt Q02880); assay: kDNA decatenation assay, TOPOIIβ; format: biochemical; conditions: for TOPOIIβ inhibition, in words: decatenation assay;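 as to all read-outs here: kinetoplast DNA incubated with one unit of TOPOIIβ at 37 °C for 30 min, decatenated product resolved on 1% agarose gel, inhibition scored from relative band intensity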
T2 construct: purchased Inspiralis
T2 sequence (Q02880 whole entry): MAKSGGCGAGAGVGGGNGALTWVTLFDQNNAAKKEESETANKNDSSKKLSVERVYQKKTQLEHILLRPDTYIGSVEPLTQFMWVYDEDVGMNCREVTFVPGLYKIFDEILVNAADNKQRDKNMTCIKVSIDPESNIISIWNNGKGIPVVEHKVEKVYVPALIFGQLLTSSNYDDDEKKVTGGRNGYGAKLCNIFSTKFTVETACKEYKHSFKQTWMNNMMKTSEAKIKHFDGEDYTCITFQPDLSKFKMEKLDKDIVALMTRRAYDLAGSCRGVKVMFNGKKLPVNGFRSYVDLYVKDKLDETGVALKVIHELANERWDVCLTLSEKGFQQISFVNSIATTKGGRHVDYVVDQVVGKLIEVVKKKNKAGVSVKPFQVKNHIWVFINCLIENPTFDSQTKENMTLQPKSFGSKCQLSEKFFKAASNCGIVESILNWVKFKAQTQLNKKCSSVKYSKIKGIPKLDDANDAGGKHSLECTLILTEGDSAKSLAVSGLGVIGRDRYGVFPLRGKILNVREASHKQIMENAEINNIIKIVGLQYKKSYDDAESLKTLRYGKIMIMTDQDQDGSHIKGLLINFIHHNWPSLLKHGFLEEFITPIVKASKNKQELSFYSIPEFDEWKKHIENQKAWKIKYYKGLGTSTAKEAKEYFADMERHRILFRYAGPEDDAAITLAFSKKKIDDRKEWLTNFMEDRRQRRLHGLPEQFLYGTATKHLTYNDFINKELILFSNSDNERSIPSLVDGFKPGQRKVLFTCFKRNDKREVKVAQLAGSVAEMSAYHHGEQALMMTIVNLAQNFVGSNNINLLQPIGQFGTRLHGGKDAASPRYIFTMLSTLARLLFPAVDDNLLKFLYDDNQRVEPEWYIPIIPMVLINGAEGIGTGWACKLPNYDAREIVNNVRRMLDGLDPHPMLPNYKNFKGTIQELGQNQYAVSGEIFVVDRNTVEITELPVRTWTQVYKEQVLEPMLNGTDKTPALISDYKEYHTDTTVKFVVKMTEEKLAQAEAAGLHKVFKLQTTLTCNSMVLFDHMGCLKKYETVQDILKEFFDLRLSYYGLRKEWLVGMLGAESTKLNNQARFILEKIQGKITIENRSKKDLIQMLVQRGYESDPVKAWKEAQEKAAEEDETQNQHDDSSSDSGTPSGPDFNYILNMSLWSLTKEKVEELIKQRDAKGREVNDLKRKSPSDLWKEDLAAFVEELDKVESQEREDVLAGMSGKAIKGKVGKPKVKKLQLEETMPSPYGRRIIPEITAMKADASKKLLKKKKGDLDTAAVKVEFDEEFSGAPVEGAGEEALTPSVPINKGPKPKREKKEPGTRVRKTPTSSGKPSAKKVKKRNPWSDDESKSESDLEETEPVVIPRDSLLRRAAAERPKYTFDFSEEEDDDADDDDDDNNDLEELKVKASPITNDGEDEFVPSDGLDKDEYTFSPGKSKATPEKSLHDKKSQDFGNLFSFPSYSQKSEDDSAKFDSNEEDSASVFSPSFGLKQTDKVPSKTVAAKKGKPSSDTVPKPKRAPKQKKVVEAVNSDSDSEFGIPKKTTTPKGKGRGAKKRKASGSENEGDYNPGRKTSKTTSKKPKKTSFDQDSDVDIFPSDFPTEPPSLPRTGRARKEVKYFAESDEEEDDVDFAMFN

[3] = test system: Doxorubicin treated human iPSC-derived cardiomyocytes; assay: iPSC-CM protection by myricetin analogs (Table 1); format: cell-based; conditions: for cardioprotection, in words: Table 1
[4] = test system: cardiomyocytes; assay: cytotoxicity of myricetin analogs to cardiomyocytes (Table 1, Toxicity); conditions: for cytotoxicity, in words: at 100 μM where stated; for cytotoxicity, in words / toxic effects at concentrations less than 100 μM: Table 1; for Toxicity: * = cytotoxicity at 100 μM
[5] = test system: cardiomyocytes differentiated from induced pluripotent stem cells; assay: long term toxicity on electrophysiology, active electrodes (Example 24); format: cell-based; conditions: for decrease in the number of active electrodes relative to the mock-treated sample: various concentrations, at least 5 days
Experimental: Samples were either mock-treated with 0.1% DMSO, or treated with various concentrations of the indicated drug. Following treatment, the percentage of active electrodes in each sample was measured for at least 5 days. Percentage of active electrodes was quantified and graphed in a time course.

[6] = test system: MDA-MB-231 cells; conditions: co-treated with increasing concentrations of doxorubicin, 72 hours
[7] = test system: A549 cells; assay: doxorubicin-mediated death of lung cancer cells, CellTiter-Glo (Example 22); format: cell-based; conditions: co-treated with increasing concentrations of doxorubicin, 72 hours
Experimental: A549 cells (lung cancer) were cultured for 1 day before performing experiments. […] XLFit was used for curve fitting.

[8] = test system: cardiomyocytes differentiated from induced pluripotent stem cells; assay: acute toxicity on electrophysiology, MEA beat period and field potential duration (Example 23); format: cell-based; conditions: at least 20 minutes; for acute drug toxicity on beating: higher concentrations; for difference in beat period or field potential duration vs control samples: lower drug concentration
Experimental: Samples were either mock-treated with 0.1% DMSO, or treated with increasing concentrations of the indicated drug for at least 20 minutes. Cardiomyocytes were treated with the hERG potassium channel blocker E4031 as a control. Following treatment, the beat period and field potential duration (FPD) were measured in each sample using the MEA.

[9] = test system: Cardiomyocytes (human iPSC-derived); assay: doxorubicin-induced apoptosis, CellEvent dye, 3 days (Example 4); format: cell-based; conditions: Cardiomyocyte, 72 h, co-treated with 1 μM of doxorubicin, read-out: IC50 for protective effects against apoptosis
Experimental: Cardiomyocytes were prepared as described above. […] Following treatment, the samples were incubated with a CellEvent dye to indicate apoptosis-positive cells, and a second dye to identify cell nuclei.

[10] = molecular target: topoisomerase IIβ (Homo sapiens, UniProt Q02880); conditions: 100 μM, 24 hours, iPSC-CMs
Sequence of topoisomerase IIβ (Q02880 whole entry): as above

[11] = test system: Human iPSC-derived cardiomyocytes; assay: DOX-induced DNA double strand break, γH2AX immunostaining; format: cell-based; conditions: Homo sapiens, Cardiomyocyte, read-out: IC50, concentration at which DOX-induced double strand break was reduced to 50%; 0.5 μM of doxorubicin, 48 hours
[12] = test system: Human iPSC-derived cardiomyocytes; assay: cells; format: cell-based; conditions: Cardiomyocyte, 0.5 μM of Doxorubicin, 72 hours, read-out: EC50 for rescue from DOX-induced cell death
Experimental: To measure the rescue rates from the DOX-induced cell death in cardiomyocytes, the protective effect of myricetin was directly compared with that of dexraxozane (DEX; standard of care). Human iPSC-derived cardiomyocytes were treated with 0.5 μM of Doxorubicin and increasing concentrations of myricetin (MYR, circle) or dexraxozane (DEX, square). […] Cells were imaged using INCell Analyzer2200 (GE). […] (n=3).
Next, the ability of MYR to confer cardioprotection was directly compared with that of DHM as these two compounds display distinctive property in their structures and TOPOI inhibition activity. […] Human iPSC-derived cardiomyocytes were treated with 0.5 μM of Doxorubicin and increasing concentrations of myricetin (MYR, circle) or dihydromyricetin (DHM, triangle).

[13] = Homo sapiens, iPSC-CM, read-out: iPSC-CM protection EC50
[14] = Homo sapiens, iPSC-CM, read-out: iPSC-CM protection Max Effect (%)
[15] = even at extreme concentrations (>200 μM)
[16] = initial screen at 10 μM or 100 μM

## O=c1ccoc2cc(O)ccc12 [Compound 7-hydroxy-4-chromone, 7-hydroxy-4-chromone]
[1]
  TOPOIIα inhibition, in words: Nor did either compound confer TOPOIIβ or a inhibition
[2]
  TOPOIIβ inhibition, in words: Nor did either compound confer TOPOIIβ or a inhibition
[3]
  cardioprotection, in words: no positive effect
[4]
  cytotoxicity, in words: high level of cytotoxicity

## O=c1c(O)c(-c2ccc(O)cc2)oc2cc(O)ccc12 [Compound 10, 3,7,4′-trihydroxyflavone]
[1]
  TOPIIα Inhibition: −
[2]
  TOPIIβ Inhibition: −
[3]
  Rescue: +
[3]; [13]
  EC50: 3.26 µM
[3]; [14]
  Emax: 27%
[4]
  toxic effects at concentrations less than 100 μM: exhibited toxic effects

## Nc1ccc(O)c(C(=O)O)c1 [mesalamine]
[5]
  decrease in the number of active electrodes relative to the mock-treated sample: no observable decrease
[6]
  difference in the percentage of cell death vs doxorubicin without protective agent: no significant difference
[7]
  difference in the percentage of cell death vs doxorubicin without protective agent: no significant difference

## O=C1C[C@@H](c2ccc(O)cc2)Oc2cc(O)cc(O)c21 [naringenin]
[8]
  acute drug toxicity on beating: beating cessation
  difference in beat period or field potential duration vs control samples: no appreciable difference

## C[C@@H]1O[C@@H](Oc2c(-c3cc(O)c(O)c(O)c3)oc3cc(O)cc(O)c3c2=O)[C@H](O)[C@H](O)[C@H]1O [myricitrin]
[9]
  IC50: 38.5 µM

## C[C@H](CCC(=O)O)[C@H]1CC[C@H]2[C@@H]3[C@H](O)C[C@@H]4C[C@H](O)CC[C@]4(C)[C@H]3CC[C@]12C [chenodeoxycholic acid]
[8]
  acute drug toxicity on beating: beating cessation
  difference in beat period or field potential duration vs control samples: no appreciable difference

## O=c1cc(-c2cc(O)c(O)c(O)c2)oc2ccccc12 [Compound 8, 3′,4′,5′-trihydroxyflavone]
[1]
  TOPIIα Inhibition: −
[2]
  TOPIIβ Inhibition: −
[3]
  Rescue: +
[3]; [13]
  EC50: 43 µM
[3]; [14]
  Emax: 64%
[4]
  Toxicity: −

## C[C@@H](CN1CC(=O)NC(=O)C1)N1CC(=O)NC(=O)C1 [dexrazoxane]
[5]; 167 μM dexrazoxane, about 2 days post-treatment
  reduction in the number of active electrodes: ~25%
[5]; 167 μM dexrazoxane, about 3 days post-treatment
  reduction in the number of active electrodes: ~50%
[5]; 500 μM dexrazoxane, about 2 days post-treatment
  reduction in the number of active electrodes: ~50%
[5]; 500 μM dexrazoxane, about 3 days post-treatment
  reduction in the number of active electrodes: ~100%
[10]
  topoisomerase IIβ protein levels: marked disappearance of TOPOIIβ
[6]
  difference in the percentage of cell death vs doxorubicin without protective agent: no significant difference
[7]
  difference in the percentage of cell death vs doxorubicin without protective agent: no significant difference
[8]
  difference in beat period or field potential duration vs control samples: no appreciable difference

## O=c1cc(-c2cc(O)c(O)c(O)c2)oc2cc(O)cc(O)c12 [Compound 3, 5,7,3′,4′,5′-pentahydroxyflavone]
[1]
  TOPOIIα inhibition, in words: displayed cardioprotection and TOPOII inhibition
[2]
  TOPOIIβ inhibition, in words: displayed cardioprotection and TOPOII inhibition
[3]; [13]
  EC50: 17.2 µM
[3]; [14]
  Emax: 56%
[3]
  cardioprotection, in words: displayed cardioprotection
[4]
  toxic effects at concentrations less than 100 μM: some toxic effects
  cytotoxicity, in words: low level of cytotoxicity

## O=c1c(O)c(-c2ccc(O)c(O)c2)oc2cc(O)cc(O)c12 [Compound 4, 3,5,7,3′,4′-pentahydroxyflavone]
[1]
  TOPOIIα inhibition, in words: exhibited TOPOII inhibition
[2]
  TOPOIIβ inhibition, in words: exhibited TOPOII inhibition
[3]; [13]
  EC50: 20.5 µM
[3]; [14]
  Emax: 58%
[3]
  cardioprotection, in words: conferred cardioprotection
[4]
  cytotoxicity, in words: high level of general cytoxicity

## O=C1c2c(O)cc(O)cc2O[C@H](c2cc(O)c(O)c(O)c2)[C@H]1O [dihydromyricetin]
[1]; [15]
  TOPOIIα enzymatic activity inhibition: did not inhibit
[2]; [15]
  TOPOIIβ enzymatic activity inhibition: did not inhibit
[11]
  IC50: 11.3 µM
[9]
  IC50: 40.5 µM
[12]
  EC50: 14 µM

## O=c1cc(-c2cc(O)c(O)c(O)c2)oc2cc(O)ccc12 [Compound 6, 7,3′4′,5′-tetrahydroxyflavone]
[1]
  TOPIIα Inhibition: −
  TOPOIIα inhibition, in words: did not inhibit TOPOII enzymes
[2]
  TOPIIβ Inhibition: −
  TOPOIIβ inhibition, in words: did not inhibit TOPOII enzymes
[3]; [13]
  EC50: 17.1 µM
[3]; [14]
  Emax: 71%
[3]
  cardioprotection, in words: displayed cardioprotection
[4]
  Toxicity: −

## Nc1c(Br)cc(Br)cc1CN[C@H]1CC[C@H](O)CC1 [ambroxol]
[5]
  decrease in the number of active electrodes relative to the mock-treated sample: no observable decrease
[6]
  difference in the percentage of cell death vs doxorubicin without protective agent: no significant difference
[7]
  difference in the percentage of cell death vs doxorubicin without protective agent: no significant difference
[8]
  difference in beat period or field potential duration vs control samples: no appreciable difference

## O=c1c(O)c(-c2cc(O)c(O)c(O)c2)oc2cc(O)ccc12 [Compound 2, 3,7,3′,4′,5′-pentahydroxyflavone]
[1]
  TOPOIIα inhibition, in words: high level of inhibition
[2]
  TOPOIIβ inhibition, in words: high level of inhibition
[3]; Homo sapiens, Cardiomyocyte, approximate, read-out: EC50 for cardioprotection
  EC50: 10 to 20 µM
[3]; [13]
  EC50: 12.6 µM
[3]; [14]
  Emax: 64%
[4]
  Toxicity: −

## COc1ccc2c(=O)c(OC)c(-c3cc(OC)c(OC)c(OC)c3)oc2c1 [Compound 37, 3,7,3′,4′,5′-O-pentamethylrobinetin]
[1]
  TOPIIα Inhibition: −
[2]
  TOPIIβ Inhibition: −
[3]
  Rescue: −
[3]; [16]
  iPSC-CM protection Max Effect (%), class symbol: † (Compounds failed to exhibit >30% protection Max Effect at 10 μM or 100 μM on initial screen.)

## O=c1c(O)c(-c2ccccc2)oc2cc(O)cc(O)c12 [3,5,7-trihydroxyflavone]
[1]
  TOPOIIα inhibition, in words: neither cardioprotection nor TOPOII inhibition
[2]
  TOPOIIβ inhibition, in words: neither cardioprotection nor TOPOII inhibition
[3]
  cardioprotection, in words: neither cardioprotection nor TOPOII inhibition
[4]
  cytotoxicity, in words: generalized cytotoxicity

## O=c1ccoc2ccccc12 [Compound 29, chromone]
[3]
  Rescue: −
[3]; Homo sapiens, iPSC-CM, initial screen at 10 μM or 100 μM, read-out: iPSC-CM protection Max Effect (%), class symbol
  Emax: < 30%
[4]
  Toxicity: −

## CC(=O)N[C@@H](CS)C(=O)O [N-acetyl cysteine]
[6]
  difference in the percentage of cell death vs doxorubicin without protective agent: no significant difference
[7]
  difference in the percentage of cell death vs doxorubicin without protective agent: no significant difference
[8]
  difference in beat period or field potential duration vs control samples: no appreciable difference

## COc1cc(-c2oc3cc(O)cc(O)c3c(=O)c2O)cc(OC)c1OC [Compound 34, 3′,4′,5′-O-trimethylmyricetin]
[1]
  TOPIIα Inhibition: −
[2]
  TOPIIβ Inhibition: −
[3]
  Rescue: −
[3]; [16]
  iPSC-CM protection Max Effect (%), class symbol: † (Compounds failed to exhibit >30% protection Max Effect at 10 μM or 100 μM on initial screen.)

## O=c1c(O)c(-c2ccc(O)c(O)c2)oc2ccccc12 [Compound 12, 3,3′,4′-trihydroxyflavone]
[1]
  TOPIIα Inhibition: −
[2]
  TOPIIβ Inhibition: −
[3]
  Rescue: +
[3]; [13]
  EC50: 6.43 µM
[3]; [14]
  Emax: 16%

## COc1cc(-c2oc3cc(O)cc(O)c3c(=O)c2O)cc(O)c1O [Compound 31, 3′-O-methylmyricetin]
[1]
  TOPIIα Inhibition: −
[2]
  TOPIIβ Inhibition: −
[3]
  Rescue: +
  iPSC-CM protection Max Effect (%): 76%
[3]; read-out: iPSC-CM protection EC50
  EC50: 58.7 µM

## COc1ccc2c(=O)c(O)c(-c3cc(OC)c(OC)c(OC)c3)oc2c1 [Compound 36, 7,3′,4′,5′-O-tetramethylrobinetin]
[1]
  TOPIIα Inhibition: −
[2]
  TOPIIβ Inhibition: −
[3]
  Rescue: −
[3]; [16]
  iPSC-CM protection Max Effect (%), class symbol: † (Compounds failed to exhibit >30% protection Max Effect at 10 μM or 100 μM on initial screen.)

## CC(=O)N(O)CCCCCNC(=O)CCC(=O)N(O)CCCCCNC(=O)CCC(=O)N(O)CCCCCN [deferoxamine]
[8]
  difference in beat period or field potential duration vs control samples: no appreciable difference
